Laboratory results published in paper PMC10778198, “First-in-Human Dose-Escalation Study of the Novel Oral Depsipeptide Class I-Targeting HDAC Inhibitor Bocodepsin (OKI-179) in Patients with Advanced Solid Tumors” (Cancers, 2023).
pIC50: −log10 of the molar value. Where two headings read alike, the source gives them in different places.

How the values were obtained:
HDAC8 = test system: HDAC8; design: method as in PMID 34965958; settings: cell-free; cited from earlier work
[1] = plasma pharmacokinetics by LC-MS/MS in patients; assay type: in vivo, human; settings: for Tmax: read-out: Tmax of OKI-006 (Free)
Experimental: Blood samples were collected immediately prior to the first dose on cycle 1 and day 1, and then at 0.25, 0.5, 1, 2, 4, 8, and 24 h after taking OKI-179 on days 1 and 15. Additional samples were collected pre-dose and 2 and 4 h after OKI-179 administration on day 18 in later cohorts. Blood samples were stabilized with sodium fluoride and formic acid immediately after collection to arrest the additional conversion of the prodrug OKI-179 to OKI-006. Plasma was further stabilized using ascorbic acid prior to low-temperature storage.
Plasma concentrations of OKI-179 and OKI-006 were analyzed using validated liquid chromatography-mass spectrometry (LC-MS/MS) (Quintara Discovery Inc., Hayward, CA, USA). OKI-006 contains a free thiol moiety that can reversibly react with endogenous molecules in the blood and tissue, resulting in “bound” OKI-006. The unreacted OKI-006 is considered “free”. As bound OKI-006 can reversibly convert to free OKI-006 in vivo, both the free and “total” (free plus bound) concentrations of OKI-006 are considered pharmacologically relevant and were therefore quantified as part of this study. Bioanalytically, the total OKI-006 was measured by chemically converting all bound OKI-006 to free OKI-006 prior to analysis using the free OKI-006 bioanalytical method.
The AUClast was calculated from time zero to the time of the last quantifiable concentration for OKI-179, free OKI-006, and total OKI-006.

HDAC3 = test system: HDAC3; design: method as in PMID 34965958; settings: cell-free; cited from earlier work
Class IIa HDACs = test system: Class IIa HDACs; design: method as in PMID 34965958; settings: cited from earlier work
HDAC1 = test system: HDAC1; design: method as in PMID 34965958; settings: cell-free; cited from earlier work
HDAC2 = test system: HDAC2; design: method as in PMID 34965958; settings: cell-free; cited from earlier work
[2] = OKI-179 300-mg 5:2, Cycle 1 Day 1, geometric mean
[3] = OKI-179 300-mg 5:2, Cycle 1 Day 15, geometric mean

**Q.** With `CC(C)[C@@H]1NC(=O)C(C)(C)NC(=O)c2csc(n2)CNC(=O)C[C@@H](/C=C/CCS)OC1=O` [OKI-006] as the molecule, how does the pIC50 (HDAC8) read?
**A.** The pIC50 was 7.33.

**Q.** What about the “AUClast of OKI-006 (Free)” value [1, 2] of the same molecule?
**A.** The value was 2790 ng·h/mL.

**Q.** And the “MRAUC, OKI-006 (Free) to OKI-179 metabolite ratio based on AUClast” value [1, 2]?
**A.** The value was 13.3.

**Q.** What about the “AUClast of OKI-006 (Free)” value [1, 3] of the same molecule?
**A.** The value was 3180 ng·h/mL.

**Q.** What about the “Cmax of OKI-006 (Free)” value [1, 3] of the same molecule?
**A.** Its value is 2220 ng/mL.

**Q.** And the “MRAUC, OKI-006 (Free) to OKI-179 metabolite ratio based on AUClast” value [1, 3]?
**A.** The value was 10.3.

**Q.** What about the “Cmax and AUC versus preclinical threshold for efficacy” value ([1]; OKI-179 doses of 200 mg or greater) of the same molecule?
**A.** The value was “exceeded the preclinical threshold for efficacy”.

**Q.** And the Tmax ([1]; human, plasma, oral, 300 mg, OKI-179 300-mg 5:2, Cycle 1 Day 1, median)?
**A.** The Tmax was 41.5 min.

**Q.** And the Tmax ([1]; human, plasma, oral, 300 mg, OKI-179 300-mg 5:2, Cycle 1 Day 15, median)?
**A.** Its Tmax is 56 min.

**Q.** And the half-life ([1]; human, plasma, oral, 300 mg, OKI-179 300-mg 5:2, Cycle 1 Day 15, median, read-out: t1/2 of OKI-006 (Free) (converted))?
**A.** Its half-life is 206 min.

**Q.** And the pIC50 (HDAC3)?
**A.** The pIC50 was 8.70.

**Q.** What about the pIC50 (Class IIa HDACs) of the same molecule?
**A.** Its pIC50 is less than 6.00.

**Q.** And the pIC50 (HDAC1)?
**A.** The pIC50 was 8.92.

**Q.** What about the pIC50 (HDAC2) of the same molecule?
**A.** The pIC50 was 8.62.
